{"source": "patent US20260306460A1", "about": "“COMPOSITION FOR REMOVING AND INHIBITING SENESCENT CELLS, AND USES THEREOF” (LIFECEUTIX CO., LTD., priority 2023, published 2026)", "format_in_all_cases": "in vivo, mouse", "key": {"[1]": {"test_system": "transplanted kidney of aged mice", "assay": "Efficiency of kidney transplantation from aged mice into young mice", "protocol": "Furthermore, the efficiency of kidney transplantation following the removal of senescent cells from the kidney was evaluated. Kidneys extracted from aged mice of Example 21-1, untreated and treated with LX-403, were transplanted into 3-month-old young mice. Three days later, the efficiency of kidney transplantation was assessed through analysis of markers of aging and kidney damage. […] This improvement in transplantation efficiency was also observed when kidneys extracted from aged mice were transplanted after removing senescent cells under ex vivo conditions, such as by culturing them in an LX-403-containing medium."}, "[2]": {"test_system": "transplanted liver of aged mice", "assay": "Efficiency of liver transplantation from aged mice into young mice", "protocol": "In addition, the efficiency of liver transplantation was evaluated. Livers extracted from aged mice of Example 21-1, untreated and treated with LX-403, were transplanted into young 3-month-old mice, and the efficiency of liver transplantation was evaluated 3 days later through analysis of aging and liver damage markers. As a result, when treated with LX-403, the amount of p16, an aging-related marker of the liver after transplantation, and serum AST and ALT, liver damage markers, decreased compared to the control group. […] This improvement in transplantation efficiency was also confirmed when the livers extracted from aged mice were transplanted after removing senescent cells under ex vivo conditions, such as by culturing them in an LX-403-containing medium."}, "[3]": {"test_system": "doxorubicin-induced aged C57BL6J mice", "assay": "Serum IL6 (ELISA) in doxorubicin-aged mice, Example 22-5, Table 34", "details": "untreated aged = 100", "protocol": "Eight-week-old male C57BL6J mice (KRIBB Laboratory Animal Resource Center) were acclimated to the experimental environment for one week. Afterwards, the anticancer agent doxorubicin was administered intraperitoneally at a concentration of 10 mg/kg, inducing aging for more than 10 days. The aging-induced mice were randomly assigned to experimental and control groups. LX-403 was mixed with a 10% ethanol solution of PEG400 and administered orally at a concentration of 25 mg/kg or intradermally at a concentration of 1 μM for 21 days. LX-1801 was mixed in distilled water with 4% DMSO, 30% PEG300, and 5% Tween80 and administered intradermally at a concentration of 0.4 μM daily for 21 days. LX-2001 was mixed in PBS and administered intradermally at a concentration of 2 μM daily for 21 days. LX-2002 was mixed in distilled water with 4% DMSO, 30% PEG300, and 5% Tween80 and administered intradermally at a concentration of 2 μM daily for 21 days. […] LX-2005 was mixed in distilled water with 4% DMSO, 30% PEG300, and 5% Tween80 and administered intradermally at a concentration of 90 μM daily for 21 days. […]\nThe amount of IL6, a senescence-associated secretory factor (SASP), was measured in serum collected from mice using the same method as in Example 7-5 of WO2023-085787 A1 using an enzyme-linked immunosorbent assay (ELISA Kit, R&D Systems)."}, "[4]": {"test_system": "obesity-induced aged C57BL6J mice", "assay": "p16 and p21 mRNA in obesity-aged mice, Example 23-2, Table 42", "details": "360 mg/kg oral daily for 21 days, untreated 100%", "protocol": "15-week-old male C57BL6J mice (The Jackson Laboratory) were induced to obesity by a high-fat diet using the same method as in Example 9-1 WO2023-085787 A1. After acclimation to the experimental environment for one week, the mice were randomly assigned to experimental and control groups. […] LX-3002 was mixed in distilled water with 4% DMSO, 30% PEG300, and 5% Tween80 and administered orally at a concentration of 10 mg/kg daily for 21 days. LX-5701 was mixed in PBS and administered orally at a concentration of 360 mg/kg daily for 21 days. LX-6807 was mixed in saline and administered intraperitoneally at a concentration of 1 mg/kg daily for 21 days. The control group received only the solution in the same volume. After the end of drug administration, the methods described in each example below were performed.\nMice were sacrificed using the same method as in Example 7-2 of WO2023-085787 A1. RNA was extracted from organ tissues from each site, and the synthesized cDNA was used for qRT-PCR (quantitative real-time PCR) analysis. […] The mRNA levels of p16 and p21 after obesity induction were calculated as 100% and compared with the mRNA levels of p16 and p21 after LX-5701 treatment."}}, "data": [{"smiles": "O=C(C(C[N+](=O)[O-])=NO)N1CCN(C(c2ccc(Cl)cc2)c2ccc(Cl)cc2)CC1", "note": "[LX-403]", "values": [{"measurement": "p16 of transplanted kidney, serum urea and creatinine", "setting": "[1]; 3 days after transplantation", "result": "reduced"}, {"measurement": "efficiency of kidney transplantation", "setting": "[1]; mouse, in vivo", "result": "improves the efficiency of kidney transplantation"}, {"measurement": "p16 of transplanted liver, serum AST and ALT", "setting": "[2]; 3 days after transplantation", "result": "decreased"}, {"measurement": "efficiency of liver transplantation", "setting": "[2]; mouse, in vivo", "result": "improves the efficiency of long-term liver transplantation"}]}, {"smiles": "O=C1C2CCN(CC2)C1CNC(=O)C(F)(F)F", "note": "(stereo not shown) [LX-5701]", "values": [{"measurement": "IL6 (%)", "setting": "[3]", "result": "57 (±21.5) %"}, {"measurement": "p16 mRNA, Eye", "setting": "[4]; Eye", "result": 71, "unit": "%"}, {"measurement": "p21 mRNA, Eye", "setting": "[4]; Eye", "result": 70, "unit": "%"}, {"measurement": "p16 mRNA, Heart", "setting": "[4]; Heart", "result": 80, "unit": "%"}, {"measurement": "p21 mRNA, Heart", "setting": "[4]; Heart", "result": 81, "unit": "%"}, {"measurement": "p16 mRNA, Liver", "setting": "[4]; Liver", "result": 63, "unit": "%"}, {"measurement": "p21 mRNA, Liver", "setting": "[4]; Liver", "result": 61, "unit": "%"}, {"measurement": "p16 mRNA, Lung", "setting": "[4]; Lung", "result": 74, "unit": "%"}, {"measurement": "p21 mRNA, Lung", "setting": "[4]; Lung", "result": 77, "unit": "%"}, {"measurement": "p16 mRNA, Muscle", "setting": "[4]; Muscle", "result": 75, "unit": "%"}, {"measurement": "p21 mRNA, Muscle", "setting": "[4]; Muscle", "result": 64, "unit": "%"}, {"measurement": "p16 mRNA, Skin", "setting": "[4]; Skin", "result": 77, "unit": "%"}, {"measurement": "p21 mRNA, Skin", "setting": "[4]; Skin", "result": 68, "unit": "%"}, {"measurement": "p16 mRNA, asWAT", "setting": "[4]; asWAT", "result": 67, "unit": "%"}, {"measurement": "p21 mRNA, asWAT", "setting": "[4]; asWAT", "result": 79, "unit": "%"}, {"measurement": "p16 mRNA, eWAT", "setting": "[4]; eWAT", "result": 65, "unit": "%"}, {"measurement": "p21 mRNA, eWAT", "setting": "[4]; eWAT", "result": 55, "unit": "%"}, {"measurement": "p16 mRNA, iBAT", "setting": "[4]; iBAT", "result": 72, "unit": "%"}, {"measurement": "p21 mRNA, iBAT", "setting": "[4]; iBAT", "result": 80, "unit": "%"}, {"measurement": "p16 mRNA, iWAT", "setting": "[4]; iWAT", "result": 61, "unit": "%"}, {"measurement": "p21 mRNA, iWAT", "setting": "[4]; iWAT", "result": 51, "unit": "%"}]}]}
